Consider two molecules from patent publication US20030186947A1, “Compounds having activity as inhibitors of cytochrome P450RAI” (priority 2000, published 2003).

Like-named read-outs stand apart in the source and are kept apart here.

The series deals with skin of hairless mice. To be noted: topical in acetone, once daily days 1 through 5, mean ±SD, range 0-21. From the text:
This irritation is a direct result of activation of the RAR nuclear receptors. Analysis of retinoid topical irritation is also a highly reproducible method of determining in vivo retinoid potency. The SKH1-hrBR or hairless mouse provides a convenient animal model of topical irritation, since retinoid-induced skin flaking and abrasion can be readily scored by eye (Standeven et al., “Specific antagonist of retinoid toxicity in mice.” Toxicol. Appl. Pharmacol. 138:169-175, (1996); Thacher, et al., “Receptor specificity of retinoid-induced hyperplasia. Effect of RXR-selective agonists and correlation with topical irritation”. J. Pharm. Exp. Ther., 282:528-534, (1997)).
Female hairless mice (Crl:SKH1-hrBR), 5-7 weeks old, were obtained from Charles River Breeding Labs (Wilmington, Mass.). Animals were about 6 weeks old at the start of the experiments. Food (Purina Rodent Chow 5001) and reverse osmosis water were provided ad libitum. Mice were housed individually throughout the dosing period. In some experiments, mice that fit within a defined weight range, e.g., 21-25 g, were selected from the available stock and then randomly assigned to the various treatment groups, using body weight as the randomization variable.
The compounds to be tested were dissolved in acetone for application to the backs of the mice.
Mice were treated topically on the back in a volume of 4.0 ml/kg (0.07-0.12 ml) adjusted daily so as to deliver a fixed dose of test compound per g body weight. Doses are disclosed as nmol/25 g.
The mice were weighed daily and the dorsal skin was graded daily using separate semi-quantitative scales to determine flaking and abrasion. These flaking and abrasion scores were combined with weight change (if any) to create a cutaneous toxicity score (Blackjack score).
A visual grading scale was used for characterizing topical irritation on a daily basis. The grading scale used is as follows:
The flaking and abrasion observations were combined with body weight observations to calculate a single, semiquantitative topical or cutaneous “toxicity score” as detailed below. The toxicity score (also known as “blackjack score” since the theoretical maximum is 21) takes into account the maximal severity, and the time of onset of skin flaking and abrasions and the extent of weight between the first and last days of the experiment. Below are listed the seven numerical components of the toxicity score and an explanation of how those values are combined to calculate the toxicity score.
Flaking onset score (2) and average severity score (3) are summed and divided by two. The quotient is added to the maximal severity score (1). Composite flaking scores are calculated for each individual animal in a group, averaged, and rounded to the nearest integer. Values can range from 0-9.
Abrasion onset score (5) and average severity score (6) are summed and divided by two. The quotient is added to the maximal severity score (4). Composite abrasion scores are calculated for each individual animal in a group, averaged and rounded to the nearest integer. Values can range from 0-8.
Composite flaking score, composite abrasion score, and systemic toxicity score are summed to give the “toxicity score.” Toxicity scores are calculated for each individual animal in a group, averaged, and rounded to the nearest integer. Values can range from 0-21 and are expressed in Table 1A below as the mean ±SD of the values for a group.

Take `CCN(Cc1ccc(C#Cc2ccc(CC(=O)O)cc2)cc1C)C1CC1` [Compound 131]: the “Cutaneous Toxicity Score (Blackjack Score)” value is 1 ± 1 (100 nmole (nmol/25 g)), 0 ± 1 (300 nmole (nmol/25 g)) and 1 ± 1 (1000 nmole (nmol/25 g)).

For `CC1(C)CCC(=O)c2ccc(C#Cc3ccc(CC(=O)O)c(F)c3)cc21` [Compound 15, [2-Fluoro-4-(8.8-dimethyl-5-oxo-5,6,7,8-tetrahydro-naphthalene-2-yl-ethynyl)phenyl]-acetic acid], the “Cutaneous Toxicity Score (Blackjack Score)” value reads like this: (100 nmole (nmol/25 g)) 1 ± 1; (1000 nmole (nmol/25 g)) 5 ± 2.
